Legend:
[1] = test system: human AMPK; design: method as in Gómez-Galeno et al., 2010; conditions: isoform combination not specified; ref Gómez-Galeno et al., 2010; read-out: half-maximal effective concentration (EC50); cited from earlier work
[2] = test system: adenylate kinase; test: Adenylate kinase assay; assay type: biochemical; conditions: concentrations up to 100 μM; data not shown
Description: Additional enzyme assays. Glycogen phosphorylase (EC 2.4.1.1) was assayed in the physiological direction in reactions containing 20 mM BES pH 6.8, 20 mM phosphate, 1 mM NADP+, 0.5 mM MgCl2, 0.1 % glycogen, 4 µM glucose-1,6-bisphosphate, 0.5 mM DTT, 0.025 % BSA, 0.6 U/ml phosphoglucomutase and 3 U/ml glucose-6-phosphate dehydrogenase (G6PDH). FBP1 (EC 3.1.3.11) was assayed in reactions containing 50 mM TES pH 7.4, 0.1 […]
mM 2-mercaptoethanol, 25 µM fructose-1,6-bisphosphate, 0.8 U/ml phosphoglucoisomerase and 0.5 U/ml G6PDH. PFK1 (EC 2.7.1.11) was assayed in reactions containing 50 mM TES pH 7.4, 2 mM MgCl2, 0.05 % BSA, 2 mM 2-mercaptoethanol, 0.5 mM fructose-6-phosphate, 1 mM ATP, 0.2 mM NADH, 0.5 U/ml aldolase, 15 U/ml triosephosphate isomerase and 2 U/ml α-glycerophosphate dehydrogenase. […] All assays were performed in a final volume of 250 µl and were monitored by changes in fluorescence (FBP1 - λex 340nm, λem 450nm) or A340. […] Liberated phosphate was determined using malachite green reagent. […] The formation of pyrophosphate (PPi) was monitored by reduction of PPi-molybdate complexes using 2-mercaptoethanol and Fiske-Subbarow reducer (Kuang, et al., 2007). […]
Tricistronic expression vectors were constructed using a strategy inspired by Neumann et al (Neumann, et al., 2003). […] The open reading frame of AMPKα1 and AMPKα2 was inserted after the 6×His tag as a Bamh1-Not1 fragment. […]

[3] = test system: mouse hepatocytes; test: Adenine nucleotide ratios by capillary electrophoresis; assay type: cell-based; conditions: 1 hr; C13 up to 100 μM
Description: Figure 4 The C2 Prodrug, C13, Potently Activates AMPK in Mouse Primary Hepatocytes (A) Isolated mouse hepatocytes were incubated with vehicle or the indicated concentrations of C13 for 1 hr. AICAR (0.5 mM) was included as a positive control. Cell lysates were analyzed using western blotting with the indicated antibodies. (B) AMPKα1 or AMPKα2 complexes were immunoprecipitated from hepatocyte extracts prepared as described in (A) and assayed for kinase activity using 0.2 mM AMARA and 0.1 mM ATP. Results are expressed as the mean Pi incorporated in picomoles per minute-milligram ± SD. (C) Hepatocytes were stimulated with 30 μM C13 for the indicated times prior to harvesting, with AICAR (0.5 mM, 1 hr) as positive control. Lysates were analyzed using western blotting with the indicated antibodies. (D) Mouse hepatocytes were treated with the indicated compounds for 1 hr, and adenine nucleotide ratios were determined using capillary electrophoresis of perchloric acid extracts. (E) Mouse hepatocytes were preincubated with 30 μM STO-609 for 30 min prior to stimulation with 30 μM C13 for 1 hr or with 1 μM ionomycin for 30 min. Lysates were analyzed using western blotting with the indicated antibodies. (F) Wild-type (LKB1^+/+) or LKB1-null (LKB1^−/−) mouse embryonic fibroblasts were incubated with the indicated concentrations of C13 for 1 hr. AICAR (2 mM) was included as a positive control. Lysates were analyzed using western blotting with the indicated antibodies. Results are representative of three independent experiments. […]
Isolation of primary hepatocytes. Hepatocytes were isolated from fasted mice by collagenase digestion (Berry and Friend, 1969). Cells were seeded in M199 containing 100 U/ml penicillin G, 100 µg/ml streptomycin, 0.1 % (w/v) BSA, 10 % (v/v) FBS, 10 nM insulin, 200 nM triiodothyronine and 100 nM dexamethasone. […]
Nucleotide measurements. […] Nucleotides were separated and quantified by capillary electrophoresis using a Beckman P/ACE instrument as previously described (Hawley, et al., 2010).

| SMILES | EC50 [1] [nM] | effect on enzyme activity [2] | ADP:ATP and AMP:ATP ratios [3] |
| --- | --- | --- | --- |
| O=P(O)(O)c1ccc(-c2cc(O)on2)o1 [Compound C2, 5-(5-hydroxyl-isoxazol-3-yl)-furan-2-phosphonic acid] | 6.3 | None of these enzymes were affected |  |
| CC(C)C(=O)OCOP(=O)(OCOC(=O)C(C)C)c1ccc(C2=NOC(=O)C2)o1 [Compound C13] |  |  | no detectable changes |

From PMC4104029, “Mechanism of Action of Compound-13: An α1-Selective Small Molecule Activator of AMPK” (Chemistry & Biology, 2014)
